Assay results reported in US20120010161A1, “NOVEL AZAPEPTIDE OR AZAPEPTIDOMIMETIC COMPOUNDS INHIBITING BCRP AND/OR P-GP” (CENTRE NATIONAL DE LA RECHERCHE SCIENTIFIQUE, priority 2009, published 2012).
Entries after “also recorded” stand apart in the source; their conditions may differ.

What was measured:
ABCG2 = molecular target: T1, ABCG2 (Homo sapiens, UniProt Q9UNQ0); experiment: Type of inhibition: mitoxantrone efflux by ABCG2 at varied substrate and inhibitor concentrations (FIG. 2); type: cell-based; parameters: expressed in transfected cells; host or cells: HEK-293 transfected with pcDNA3.1-ABCG2; conditions: for type of inhibition of ABCG2: mitoxantrone 0 to 20 μM, inhibitor 0 to 20 μM
T1 sequence (Q9UNQ0 1-655): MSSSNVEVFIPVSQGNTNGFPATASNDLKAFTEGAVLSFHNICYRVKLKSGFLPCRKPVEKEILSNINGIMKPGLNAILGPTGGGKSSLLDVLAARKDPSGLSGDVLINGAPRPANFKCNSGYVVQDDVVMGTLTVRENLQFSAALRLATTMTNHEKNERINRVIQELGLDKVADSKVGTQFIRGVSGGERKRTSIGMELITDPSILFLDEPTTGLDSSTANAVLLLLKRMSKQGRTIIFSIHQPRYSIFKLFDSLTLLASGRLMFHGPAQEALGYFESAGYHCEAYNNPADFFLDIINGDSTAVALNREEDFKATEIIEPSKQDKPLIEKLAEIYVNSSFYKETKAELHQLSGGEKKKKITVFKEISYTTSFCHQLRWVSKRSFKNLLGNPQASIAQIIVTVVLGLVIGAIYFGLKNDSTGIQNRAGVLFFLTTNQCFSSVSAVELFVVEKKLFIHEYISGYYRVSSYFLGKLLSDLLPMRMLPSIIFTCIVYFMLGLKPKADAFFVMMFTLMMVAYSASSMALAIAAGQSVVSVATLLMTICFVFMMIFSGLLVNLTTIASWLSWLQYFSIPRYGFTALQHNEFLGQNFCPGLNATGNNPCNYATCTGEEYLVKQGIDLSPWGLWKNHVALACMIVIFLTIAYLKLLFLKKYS
Experimental: The efflux of mitoxantrone by ABCG2 was measured at substrate concentrations ranging from 0 to 20 μM (panels A-C) in the presence or absence of fixed concentrations of compound (IA.2) in a range from 0 to 20 μM (panels D-E). In FIG. 2, the results obtained by varying the […] concentration are presented as a representation, which is either direct in panel A or of Lineweaver-Burke form in panel B or of Eadie-Hofstee form in panel C. The results obtained by varying the […] concentration are presented in linear (panel D) or logarithmic (panel E) x-axis scale. The curves were adjusted by means of the SigmaPlot software.
This is confirmed by the Lineweaver-Burke and Eadie-Hofstee representations presented, respectively, in FIG. 2B and FIG. 2C. The representations of these two graphs are characteristic of this type of inhibition. The inhibition constant K of compound (IA.2) is estimated as about 1 μM from the adjustment of the points of FIG. 2D or FIG. 2E.

HEK-293 cells = experiment: Cytotoxicity on cell growth, MTT test; type: cell-based, human; conditions: 72 hours; for harmlessness / toxicity on HEK-293 cells: cells expressing or not ABCG2
Experimental: (§1) The cells are seeded (10 000 cells/well) in 96-well plates and incubated for 24 hours at 37° C. under 5% CO2. Varied concentrations of mitoxantrone (from 0 to 20 μM in a constant final volume of 100 μL) are then added with an equal volume of each of the test compounds. The cells are then left to divide for 72 hours. The cytotoxicity is evaluated colorimetrically with 3-(4,5-dimethylthiazol-2-yl)-2,5-diphenyltetrazolium bromide (MTT).
Increasing concentrations of compound (IA.2) are applied to HEK-293 cells expressing or not expressing ABCG2, and whose residual vitality is evaluated after 72 hours of treatment by an MTT test. The results are illustrated in FIG. 4, in which the cells expressing ABCG2 are represented by empty circles, and those not expressing it by solid circles. […] This absence of toxicity is observed even at a very high concentration such as 40 μM, which corresponds to 40 times the IC50 value.
Increasing concentrations of compound (IA.1) are applied to HEK-293 cells expressing or not expressing ABCG2, and whose residual vitality is evaluated after 72 hours of treatment by an MTT test. The results are illustrated in FIG. 6, in which the cells expressing ABCG2 are represented by empty circles, and those not expressing it by solid circles.
Increasing concentrations of compound (IB.1) are applied to HEK-293 cells expressing or not expressing ABCG2, and whose residual vitality is evaluated after 72 hours of treatment by an MTT test. The results are illustrated in FIG. 8, in which the cells expressing ABCG2 are represented by empty circles and those not expressing it by solid circles.
Increasing concentrations of compound (IB.11) are applied to HEK-293 cells expressing or not expressing ABCG2, and whose residual vitality is evaluated after 72 hours of treatment by an MTT test. The results are illustrated in FIG. 10, in which the cells expressing ABCG2 are represented by empty circles, and those not expressing it by solid circles.

[1] = system: HEK-293 cells expressing ABCG2; experiment: Chemosensitization to mitoxantrone, cell growth test (MTT); type: cell-based, human; conditions: 5 μM compound, 72 hours, compared with cells not expressing ABCG2
Experimental: as §1
Increasing concentrations of mitoxantrone (MTX) are applied to HEK-293 cells expressing or not expressing ABCG2 and subjected or not subjected to a treatment with 5 μM of compound (IA.2), and whose residual vitality is evaluated after 72 hours of treatment by an MIT test. The results are illustrated in FIG. 3, in which the cells expressing ABCG2 are represented by circles, and those not expressing it by squares; those that are treated with 5 μM of (IA.2), i.e. five times its IC50, appear as empty symbols, whereas those that are not treated with (IA.2) appear as solid symbols. […] Compound (IA.2) thus appears to be a very efficient chemosensitizer.
Increasing concentrations of mitoxantrone (MTX) are applied to HEK-293 cells expressing or not expressing ABCG2 and subjected or not subjected to a treatment with 5 μM of compound (IA.1), and whose residual vitality is evaluated after 72 hours of treatment by an MTT test. The results are illustrated in FIG. 5, in which the cells expressing ABCG2 are represented by circles, and those not expressing it by squares; those that are treated with 5 μM of (IA.1), i.e. 2.5 times its IC50, appear as empty symbols, whereas those that are not treated with (IA.1) appear as solid symbols. […]
Increasing concentrations of mitoxantrone (MTX) are applied to HEK-293 cells expressing or not expressing ABCG2 and subjected or not subjected to a treatment with 5 μM of compound (IB.1), and whose residual vitality is evaluated after 72 hours of treatment by an MTT test. […]

Row | Structure (SMILES) | type of inhibition of ABCG2 (ABCG2) | harmlessness / toxicity on HEK-293 cells (HEK-293 cells) | cytotoxic effect on HEK-293 cells (HEK-293 cells; concentration range tested, more than 80 times its IC50, expressing or not ABCG2) | chemosensitization: restoration of mitoxantrone sensitivity [1] | cytotoxic effect on HEK-293 cells (HEK-293 cells; concentration range tested, more than 10 times its IC50, expressing or not ABCG2) | cytotoxicity on HEK-293 cells (HEK-293 cells; at 40 times the IC50) | cytotoxic effect on HEK-293 cells (HEK-293 cells; up to 20 times its IC50, expressing or not ABCG2) | Ki (ABCG2; ABCG2, mitoxantrone efflux, from adjustment of FIG. 2D or 2E, read-out: inhibition constant K) [µM] | cytotoxicity on HEK-293 cells (HEK-293 cells; up to 40 μM (40 times the IC50), expressing or not ABCG2)
1 | CC(C)(C)OC(=O)N[C@H](CNN(CCCCCCNC(=O)OCc1ccccc1)C(=O)OCc1ccccc1)CC(=O)OCc1ccccc1 [IB.11, Benzyl ester of (3S)-4-[2-benzyloxycarbonyl-2-(6-benzyloxycarbonylaminohexyl)hydrazino]-3-tert-butoxycarbonyl-aminobutyric acid] | noncompetitive | harmlessness | no cytotoxic effect | – | – | – | – | – | –
2 | CC(C)(C)OC(=O)NN(C(=O)N[C@@H](CCCCNC(=O)OCc1ccccc1)C(=O)OC(C)(C)C)c1ccccc1C(=O)OCc1ccccc1 [IA.1, tert-Butyl ester of (2S)-6-(benzyloxycarbonylamino)-2-[1-(2′-(benzyloxycarbonyl)phenyl)-2-(tert-butoxycarbonyl)hydrazino-carbonylamino]hexanoic acid] | – | harmlessness | – | chemosensitization; also recorded: restores virtually full mitoxantrone sensitivity | no cytotoxic effect | – | – | – | –
3 | CC(C)(C)OC(=O)N[C@H](CNN(CCCCCCNC(=O)OCc1ccccc1)C(=O)OC(C)(C)C)CC(=O)OCc1ccccc1 [IB.1, Benzyl ester of (3S)-4-[2-(6-benzyloxycarbonylaminohexyl)-2-tert-butoxycarbonylhydrazino]-3-tert-butoxycarbonylaminobutyric acid] | – | harmlessness | – | chemosensitization; also recorded: virtually full restoration of mitoxantrone sensitivity | – | relative cytotoxicity | no cytotoxic effect | – | –
4 | CC(C)(C)OC(=O)NN(C(=O)N[C@@H](CCCCNC(=O)OCc1ccccc1)C(=O)OC(C)(C)C)c1cccc(C(=O)OCc2ccccc2)c1 [IA.2, tert-Butyl ester of (2S)-6-(benzyloxycarbonylamino)-2-[1-(3′-(benzyloxycarbonyl)phenyl)-2-(tert-butoxycarbonyl)hydrazino-carbonylamino]hexanoic acid] | noncompetitive inhibitor | harmlessness | – | chemosensitization; also recorded: restores mitoxantrone sensitivity equal to that observed in the control cells | – | – | – | ~1 | absolutely not cytotoxic
